Experimental data from PubChem BioAssay (NCI).
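Interpolation was linear, between the two tested concentrations surrounding the appropriate level; five concentrations were tested over 48 hours in 96-well plates. TGI is the concentration that stops growth completely.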

Experiments:
Assay in all cases: growth of human tumour cells (NCI), 48 h
[1] = test system: NCI-H23 lung
[2] = test system: SNB-75 CNS
[3] = test system: A549 NSCLC
[4] = test system: MDA-MB-231 breast
[5] = test system: HCT-15 colon
[6] = test system: SNB-19 CNS
[7] = test system: OVCAR-3 ovarian
[8] = test system: RXF 393 renal
[9] = test system: LOX IMVI melanoma
[10] = test system: IGROV1 ovarian
[11] = test system: RPMI-8226 leukemia
[12] = test system: 786-0 renal
[13] = test system: SK-MEL-2 melanoma
[14] = test system: MDA-N

SMILES | TGI [1] | TGI [2] | TGI [3] | TGI [4] | TGI [5] | TGI [6] | TGI [7] | TGI [8] | TGI [9] | TGI [10] | TGI [11] | TGI [12] | TGI [13] | TGI [14]
O=C(CSc1nc2ccc(I)cc2c(=O)n1Cc1ccccc1)Nc1ccc(Br)cc1 | > 100 µM | 36.6 µM | > 100 µM | 89.7 µM | > 100 µM | > 100 µM | > 100 µM | > 100 µM | > 100 µM | > 100 µM | > 100 µM | > 100 µM | > 100 µM | 
CCN(CC)CCNc1ccc(N=Nc2ccc(S(N)(=O)=O)cc2)c2ccccc12 | 50.7 µM | 27 µM | 40.5 µM | 27.8 µM | > 100 µM | 27.7 µM | 5.55 µM | 12.7 µM |  | 28.8 µM | 18.7 µM | > 100 µM | 28.2 µM | 
COc1cccc(-c2cc(=O)c3cc(C)cnc3[nH]2)c1 | > 100 µM |  |  | > 100 µM |  | > 100 µM | > 100 µM |  | > 100 µM | > 100 µM | 29.6 µM | > 25.3 µM | 7.45 µM | 0.0213 µM
COc1ccc(CN=CN/C(C#N)=C(\N)C#N)cc1OC | > 100 µM | > 100 µM | > 100 µM | > 100 µM | > 100 µM | > 100 µM | > 100 µM |  | > 100 µM | > 100 µM | > 100 µM | > 100 µM | > 100 µM | > 100 µM
CN(C)c1ccc(/C=C2\N=C(c3ccccc3)N(c3nc4c(Cl)cc(Cl)cc4s3)C2=O)cc1 |  |  | > 100 µM | > 100 µM | > 100 µM | > 100 µM | > 100 µM |  | > 100 µM | > 100 µM | 77.5 µM | > 100 µM | > 100 µM | 56.8 µM
CC(=O)Nc1ccc(Nc2nc(=O)[nH]c(=O)[nH]2)cc1 | > 100 µM | > 100 µM | > 100 µM | > 100 µM | > 100 µM | > 100 µM | > 100 µM |  | > 100 µM | > 100 µM | > 100 µM | > 100 µM | > 100 µM | > 100 µM
COc1cc(C2c3cc4c(cc3OC(N3CCOCC3)C2C)OCO4)cc(OC)c1O (centres undefined) | > 100 µM | 7.64 µM | > 59.9 µM | > 84.2 µM | 25.5 µM | > 75.1 µM | > 34 µM | 85.4 µM | > 100 µM | > 70.8 µM | > 100 µM | > 50.4 µM | 46.3 µM | 
CC(=O)C(=C(I)I)c1ccccc1 | 36.2 µM |  | 56.2 µM | 51.4 µM | > 100 µM | 37.2 µM | 30.3 µM | 46.4 µM | 49.1 µM | 54.7 µM |  | 40.3 µM | 53.6 µM | 39.9 µM
O=C1CC(c2cccc(Cl)c2)n2cccc21 (centres undefined) | > 100 µM | > 100 µM | > 100 µM | > 100 µM | > 100 µM | > 100 µM | > 100 µM | > 100 µM | > 100 µM |  | > 100 µM | > 100 µM | > 100 µM | 
